Read-outs that look alike come from different tables or passages of the source.
Columns and labels:
HOP-62 = assay: cells; settings: Homo sapiens
MDA-MB-231/ATCC = assay: cells; settings: Homo sapiens
UACC-257 = assay: cells; settings: Homo sapiens
NCI-H522 [1] = assay: cells; settings: Homo sapiens
HCT-15 [2] = assay: cells; settings: Homo sapiens
HCC-2998 = assay: cells; settings: Homo sapiens
NCI-H522 [3] = test system: NCI-H522
788-0 = assay: cells; settings: Homo sapiens, 786-0
MCF7 = assay: cells; settings: Homo sapiens
HCT-15 [4] = test system: HCT-15
ACHN [5] = assay: cells; settings: Homo sapiens
ACHN [6] = test system: ACHN
RPMI-8226 [7] = assay: cells; settings: Homo sapiens
RPMI-8226 [8] = test system: RPMI-8226
NCI-H226 [9] = test system: NCI-H226
M14 = assay: cells; settings: Homo sapiens
NCI-H226 [10] = assay: cells; settings: Homo sapiens
UO-31 = assay: cells; settings: Homo sapiens
HCT-116 = assay: cells; settings: Homo sapiens
UACC-62 = assay: cells; settings: Homo sapiens

**Q.** `CNC(=O)NC[C@H]1O[C@@H](n2cnc3c(NC(=O)Nc4ccccc4)ncnc32)[C@H](O[Si](C)(C)C(C)(C)C)[C@@H]1CC(=O)N(C)OC` [Compound 13, 2′-O-(tert-Butyldimethylsilyl)-3′,5′-dideoxy-3′-[(N-methoxy-N-methylcarboxamido)methyl]-5′-[(N-methylcarbamoyl)amino]-N^6-(N-phenylcarbamoyl)adenosine] was tested. Which GI50 (HOP-62; HOP-62) did it give?
**A.** 24.9 µM

**Q.** And the CC50 (HOP-62; HOP-62, read-out: LC50)?
**A.** > 100 µM

**Q.** What about the GI50 (MDA-MB-231/ATCC; MDA-MB-231) of the same molecule?
**A.** 12.3 µM

**Q.** What about the CC50 (MDA-MB-231/ATCC; MDA-MB-231, read-out: LC50) of the same molecule?
**A.** > 100 µM

**Q.** What about the GI50 (UACC-257; UACC-257) of the same molecule?
**A.** 22.6 µM

**Q.** What about the CC50 (UACC-257; UACC-257, read-out: LC50) of the same molecule?
**A.** > 100 µM

**Q.** What about the TGI (A549/ATCC) of the same molecule?
**A.** >1.00E−4 Molar

**Q.** What about the “Percent Growth” value (A549/ATCC; Log10 Concentration −4.0) of the same molecule?
**A.** 27%

**Q.** What about the “Percent Growth” value (A549/ATCC; Log10 Concentration −5.0) of the same molecule?
**A.** 49%

**Q.** And the “Percent Growth” value (A549/ATCC; Log10 Concentration −6.0)?
**A.** 97%

**Q.** And the “Percent Growth” value (A549/ATCC; Log10 Concentration −7.0)?
**A.** 100%

**Q.** And the “Percent Growth” value (A549/ATCC; Log10 Concentration −8.0)?
**A.** 97%

**Q.** And the TGI (OVCAR-4)?
**A.** >1.00E−4 Molar

**Q.** What about the “Percent Growth” value (OVCAR-4; Log10 Concentration −4.0) of the same molecule?
**A.** 46%

**Q.** And the “Percent Growth” value (OVCAR-4; Log10 Concentration −5.0)?
**A.** 60%

**Q.** And the “Percent Growth” value (OVCAR-4; Log10 Concentration −6.0)?
**A.** 96%

**Q.** And the “Percent Growth” value (OVCAR-4; Log10 Concentration −7.0)?
**A.** 100%

**Q.** And the “Percent Growth” value (OVCAR-4; Log10 Concentration −8.0)?
**A.** 100%

**Q.** What about the GI50 (NCI-H522 [1]; NCI-H522) of the same molecule?
**A.** 11.1 µM

**Q.** What about the CC50 (NCI-H522 [1]; NCI-H522, read-out: LC50) of the same molecule?
**A.** > 100 µM

**Q.** And the GI50 (HCT-15 [2]; HCT-15)?
**A.** 6.47 µM

**Q.** What about the CC50 (HCT-15 [2]; HCT-15, read-out: LC50) of the same molecule?
**A.** > 100 µM

**Q.** And the GI50 (HCC-2998; HCC 2998)?
**A.** 30.6 µM

**Q.** And the CC50 (HCC-2998; HCC 2998, read-out: LC50)?
**A.** > 100 µM

**Q.** And the TGI (NCI-H522 [3])?
**A.** >1.00E−4 Molar

**Q.** And the “Percent Growth” value (NCI-H522 [3]; Log10 Concentration −4.0)?
**A.** 31%

**Q.** What about the “Percent Growth” value (NCI-H522 [3]; Log10 Concentration −5.0) of the same molecule?
**A.** 51%

**Q.** What about the “Percent Growth” value (NCI-H522 [3]; Log10 Concentration −6.0) of the same molecule?
**A.** 84%

**Q.** And the “Percent Growth” value (NCI-H522 [3]; Log10 Concentration −7.0)?
**A.** 87%

**Q.** And the “Percent Growth” value (NCI-H522 [3]; Log10 Concentration −8.0)?
**A.** 90%

**Q.** And the TGI (SK-MEL-2)?
**A.** 8.31E−5 Molar

**Q.** And the “Percent Growth” value (SK-MEL-2; Log10 Concentration −4.0)?
**A.** −5%

**Q.** What about the “Percent Growth” value (SK-MEL-2; Log10 Concentration −5.0) of the same molecule?
**A.** 62%

**Q.** And the “Percent Growth” value (SK-MEL-2; Log10 Concentration −6.0)?
**A.** 92%

**Q.** What about the “Percent Growth” value (SK-MEL-2; Log10 Concentration −7.0) of the same molecule?
**A.** 83%

**Q.** And the “Percent Growth” value (SK-MEL-2; Log10 Concentration −8.0)?
**A.** 85%

**Q.** And the GI50 (788-0)?
**A.** 9.01 µM

**Q.** And the GI50 (MCF7; MCF7)?
**A.** 5.59 µM

**Q.** And the CC50 (MCF7; MCF7, read-out: LC50)?
**A.** > 100 µM

**Q.** What about the TGI (HCT-15 [4]) of the same molecule?
**A.** >1.00E−4 Molar

**Q.** What about the “Percent Growth” value (HCT-15 [4]; Log10 Concentration −4.0) of the same molecule?
**A.** 37%

**Q.** What about the “Percent Growth” value (HCT-15 [4]; Log10 Concentration −5.0) of the same molecule?
**A.** 40%

**Q.** What about the “Percent Growth” value (HCT-15 [4]; Log10 Concentration −6.0) of the same molecule?
**A.** 93%

**Q.** What about the “Percent Growth” value (HCT-15 [4]; Log10 Concentration −7.0) of the same molecule?
**A.** 94%

**Q.** What about the “Percent Growth” value (HCT-15 [4]; Log10 Concentration −8.0) of the same molecule?
**A.** 96%

**Q.** What about the TGI (EKVX) of the same molecule?
**A.** >1.00E−4 Molar

**Q.** And the “Percent Growth” value (EKVX; Log10 Concentration −4.0)?
**A.** 36%

**Q.** And the “Percent Growth” value (EKVX; Log10 Concentration −5.0)?
**A.** 60%

**Q.** What about the “Percent Growth” value (EKVX; Log10 Concentration −6.0) of the same molecule?
**A.** 95%

**Q.** And the “Percent Growth” value (EKVX; Log10 Concentration −7.0)?
**A.** 95%

**Q.** And the “Percent Growth” value (EKVX; Log10 Concentration −8.0)?
**A.** 94%

**Q.** What about the GI50 (ACHN [5]) of the same molecule?
**A.** 14.4 µM

**Q.** And the CC50 (ACHN [5]; read-out: LC50)?
**A.** > 100 µM

**Q.** And the TGI (SN12C)?
**A.** >1.00E−4 Molar

**Q.** What about the “Percent Growth” value (SN12C; Log10 Concentration −4.0) of the same molecule?
**A.** 49%

**Q.** What about the “Percent Growth” value (SN12C; Log10 Concentration −5.0) of the same molecule?
**A.** 66%

**Q.** And the “Percent Growth” value (SN12C; Log10 Concentration −6.0)?
**A.** 96%

**Q.** What about the “Percent Growth” value (SN12C; Log10 Concentration −7.0) of the same molecule?
**A.** 104%

**Q.** And the “Percent Growth” value (SN12C; Log10 Concentration −8.0)?
**A.** 106%

**Q.** And the TGI (ACHN [6])?
**A.** >1.00E−4 Molar

**Q.** What about the “Percent Growth” value (ACHN [6]; Log10 Concentration −4.0) of the same molecule?
**A.** 23%

**Q.** What about the “Percent Growth” value (ACHN [6]; Log10 Concentration −5.0) of the same molecule?
**A.** 55%

**Q.** What about the “Percent Growth” value (ACHN [6]; Log10 Concentration −6.0) of the same molecule?
**A.** 95%

**Q.** What about the “Percent Growth” value (ACHN [6]; Log10 Concentration −7.0) of the same molecule?
**A.** 102%

**Q.** What about the “Percent Growth” value (ACHN [6]; Log10 Concentration −8.0) of the same molecule?
**A.** 107%

**Q.** And the GI50 (RPMI-8226 [7]; RPMI-8226)?
**A.** 1.58 µM

**Q.** And the CC50 (RPMI-8226 [7]; RPMI-8226, read-out: LC50)?
**A.** > 100 µM

**Q.** And the TGI (RPMI-8226 [8])?
**A.** 5.40E−6 Molar

**Q.** What about the “Percent Growth” value (RPMI-8226 [8]; Log10 Concentration −4.0) of the same molecule?
**A.** −16%

**Q.** What about the “Percent Growth” value (RPMI-8226 [8]; Log10 Concentration −5.0) of the same molecule?
**A.** −25%

**Q.** What about the “Percent Growth” value (RPMI-8226 [8]; Log10 Concentration −6.0) of the same molecule?
**A.** 69%

**Q.** What about the “Percent Growth” value (RPMI-8226 [8]; Log10 Concentration −7.0) of the same molecule?
**A.** 91%

**Q.** What about the “Percent Growth” value (RPMI-8226 [8]; Log10 Concentration −8.0) of the same molecule?
**A.** 80%

**Q.** And the TGI (NCI-H226 [9])?
**A.** >1.00E−4 Molar

**Q.** What about the “Percent Growth” value (NCI-H226 [9]; Log10 Concentration −4.0) of the same molecule?
**A.** 40%

**Q.** What about the “Percent Growth” value (NCI-H226 [9]; Log10 Concentration −5.0) of the same molecule?
**A.** 66%

**Q.** What about the “Percent Growth” value (NCI-H226 [9]; Log10 Concentration −6.0) of the same molecule?
**A.** 99%

**Q.** And the “Percent Growth” value (NCI-H226 [9]; Log10 Concentration −7.0)?
**A.** 111%

**Q.** And the “Percent Growth” value (NCI-H226 [9]; Log10 Concentration −8.0)?
**A.** 103%

**Q.** And the GI50 (M14; M14)?
**A.** 15.2 µM

**Q.** And the CC50 (M14; M14, read-out: LC50)?
**A.** > 100 µM

**Q.** What about the GI50 (NCI-H226 [10]; NCI-H226) of the same molecule?
**A.** 41.9 µM

**Q.** And the CC50 (NCI-H226 [10]; NCI-H226, read-out: LC50)?
**A.** > 100 µM

**Q.** What about the GI50 (UO-31; UO-31) of the same molecule?
**A.** 7.79 µM

**Q.** What about the CC50 (UO-31; UO-31, read-out: LC50) of the same molecule?
**A.** > 100 µM

**Q.** What about the GI50 (HCT-116; HCT-116) of the same molecule?
**A.** 4.2 µM

**Q.** What about the CC50 (HCT-116; HCT-116, read-out: LC50) of the same molecule?
**A.** > 100 µM

**Q.** And the TGI (SF-268)?
**A.** >1.00E−4 Molar

**Q.** What about the “Percent Growth” value (SF-268; Log10 Concentration −4.0) of the same molecule?
**A.** 20%

**Q.** And the “Percent Growth” value (SF-268; Log10 Concentration −5.0)?
**A.** 46%

**Q.** What about the “Percent Growth” value (SF-268; Log10 Concentration −6.0) of the same molecule?
**A.** 91%

**Q.** And the “Percent Growth” value (SF-268; Log10 Concentration −7.0)?
**A.** 105%

**Q.** And the “Percent Growth” value (SF-268; Log10 Concentration −8.0)?
**A.** 98%

**Q.** What about the TGI (T-47D) of the same molecule?
**A.** >1.00E−4 Molar

**Q.** And the “Percent Growth” value (T-47D; Log10 Concentration −4.0)?
**A.** 17%

**Q.** What about the “Percent Growth” value (T-47D; Log10 Concentration −5.0) of the same molecule?
**A.** 56%

**Q.** What about the “Percent Growth” value (T-47D; Log10 Concentration −6.0) of the same molecule?
**A.** 84%

**Q.** What about the “Percent Growth” value (T-47D; Log10 Concentration −7.0) of the same molecule?
**A.** 89%

**Q.** And the “Percent Growth” value (T-47D; Log10 Concentration −8.0)?
**A.** 90%

**Q.** And the GI50 (UACC-62; UACC-62)?
**A.** 41.9 µM

**Q.** What about the CC50 (UACC-62; UACC-62, read-out: LC50) of the same molecule?
**A.** > 100 µM

Source: patent publication US20100152434A1, “Protein Kinase-binding Nucleosides and Associated Methods” (priority 2007, published 2010)
